In ChEMBL document CHEMBL1201862, “PubChem BioAssay data set” (2004):
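Values below derive from 48-hour exposures of cells grown in 96-well plates, with endpoints linearly interpolated between the two concentrations bracketing the appropriate inhibition level. At the GI50, growth is halved.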 Calls of active or inactive are those of the source. Rule as the data show it: active = GI50 up to about 1.1 µM and inactive = higher.

How the values were obtained:
Assay in all cases: NCI anticancer screen, dose series, 48 h
A498 = tested on: A498
CCRF-CEM = tested on: CCRF-CEM
DU-145 = tested on: DU-145
HCT-116 = tested on: HCT-116
HCT-15 = tested on: HCT-15
LOX IMVI = tested on: LOX IMVI
M14 = tested on: M14
MDA-MB-435 = tested on: MDA-MB-435
MDA-N = tested on: MDA-N
Malme-3M = tested on: Malme-3M
NCI-H460 = tested on: NCI-H460
OVCAR-4 = tested on: OVCAR-4
OVCAR-5 = tested on: OVCAR-5
SF-295 = tested on: SF-295
SK-MEL-5 = tested on: SK-MEL-5
SN12C = tested on: SN12C
U-251 = tested on: U-251
UACC-257 = tested on: UACC-257
SNB-75 = tested on: SNB-75
SR = tested on: SR

Structure (SMILES)	GI50 (A498)	GI50 (CCRF-CEM)	GI50 (DU-145)	GI50 (HCT-116)	GI50 (HCT-15) [µM]	GI50 (LOX IMVI)	GI50 (M14)	GI50 (MDA-MB-435)	GI50 (MDA-N)	GI50 (Malme-3M)	GI50 (NCI-H460)	GI50 (OVCAR-4)	GI50 (OVCAR-5)	GI50 (SF-295)	GI50 (SK-MEL-5)	GI50 (SN12C)	GI50 (U-251)	GI50 (UACC-257)	GI50 (SNB-75)	GI50 (SR)
Nc1ccc(Cc2c(N)[nH]c(=O)[nH]c2=O)cc1	47.3 µM (inactive)	39.5 µM (inactive)	> 100 µM (inactive)	> 100 µM (inactive)	> 100	> 100 µM (inactive)	> 100 µM (inactive)	> 100 µM (inactive)	> 100 µM (inactive)	> 100 µM (inactive)	> 100 µM (inactive)	> 100 µM (inactive)	> 100 µM (inactive)	> 100 µM (inactive)	> 100 µM (inactive)	> 100 µM (inactive)	> 100 µM (inactive)	> 100 µM (inactive)		
O=C1CCC2=C(CCC2)N1CCc1ccc2c(c1)OCO2		29.2 µM (inactive)	> 100 µM (inactive)	48.2 µM (inactive)	43.1	59.6 µM (inactive)	92.9 µM (inactive)		> 100 µM (inactive)	> 100 µM (inactive)	48.2 µM (inactive)	> 100 µM (inactive)	42.6 µM (inactive)	55.3 µM (inactive)	24.5 µM (inactive)	95.1 µM (inactive)	45.7 µM (inactive)	84.9 µM (inactive)	29.2 µM (inactive)	30.9 µM (inactive)
Cc1cnoc1NS(=O)(=O)c1ccc(Nc2nnc(/C=C/c3c(O)ccc4ccccc34)c(=O)n2N)cc1		10.9 µM (inactive)	43.8 µM (inactive)	22 µM (inactive)	6.37	19.1 µM (inactive)	25.9 µM (inactive)	26.7 µM (inactive)	25.4 µM (inactive)	24 µM (inactive)		27.9 µM (inactive)	40.1 µM (inactive)	64 µM (inactive)		29.4 µM (inactive)			20.8 µM (inactive)	21.8 µM (inactive)
O=c1oc2ccccc2n1CCCn1c(=O)oc2ccccc21	> 100 µM (inactive)	> 100 µM (inactive)	> 100 µM (inactive)	> 100 µM (inactive)	> 100	> 100 µM (inactive)	> 100 µM (inactive)	> 100 µM (inactive)		> 100 µM (inactive)	> 100 µM (inactive)		> 100 µM (inactive)	> 100 µM (inactive)	> 100 µM (inactive)	> 100 µM (inactive)	47.9 µM (inactive)	> 100 µM (inactive)	44.5 µM (inactive)	> 100 µM (inactive)
Cc1ccc2c(c1)C(=O)N1CCC[C@H]1C=N2	34 µM (inactive)	4.02 µM (inactive)	7.78 µM (inactive)	30 µM (inactive)	28.5	23.6 µM (inactive)	16.9 µM (inactive)	16.7 µM (inactive)	19.2 µM (inactive)	18.7 µM (inactive)	20.4 µM (inactive)	19.4 µM (inactive)	28.4 µM (inactive)	31.3 µM (inactive)	11.1 µM (inactive)	23 µM (inactive)	16.3 µM (inactive)	21.9 µM (inactive)		
O=c1ssc(Cl)c1Nc1c(Cl)ssc1=O	17.8 µM (inactive)	3.78 µM (inactive)	17.3 µM (inactive)	17.5 µM (inactive)	18.6	14.8 µM (inactive)	19.2 µM (inactive)	18 µM (inactive)		17.9 µM (inactive)	18.8 µM (inactive)	18.2 µM (inactive)	19.4 µM (inactive)	41.4 µM (inactive)	17 µM (inactive)	19.5 µM (inactive)	19.5 µM (inactive)	16.5 µM (inactive)	25.9 µM (inactive)	3.62 µM (inactive)
O=[N+]([O-])/C(C(Cl)=C(Cl)Cl)=C1\NCCS1	26.1 µM (inactive)	19.1 µM (inactive)	> 100 µM (inactive)	43.3 µM (inactive)	35.6	20.1 µM (inactive)	46.9 µM (inactive)	35.8 µM (inactive)		19.7 µM (inactive)	83.9 µM (inactive)	29.1 µM (inactive)	> 100 µM (inactive)	> 100 µM (inactive)	> 100 µM (inactive)	36.5 µM (inactive)	45.8 µM (inactive)	42.2 µM (inactive)		18.4 µM (inactive)
C[N+]1(CCN=C=NC2CCCCC2)CCOCC1	> 100 µM (inactive)	> 100 µM (inactive)	> 100 µM (inactive)	> 100 µM (inactive)	> 100	> 100 µM (inactive)	> 100 µM (inactive)	> 100 µM (inactive)		> 100 µM (inactive)	> 100 µM (inactive)	> 100 µM (inactive)	> 100 µM (inactive)	> 100 µM (inactive)	> 100 µM (inactive)	22.9 µM (inactive)	> 100 µM (inactive)	> 100 µM (inactive)	> 100 µM (inactive)	> 100 µM (inactive)
